How the values were obtained:
[1] = target: T1, Poly [ADP-ribose] polymerase tankyrase-2 (Homo sapiens, UniProt Q9H2K2); test: Inhibition of N-terminal His6-tagged human TNKS2 (946 to 1162 amino acid residues) after 60 mins by autoparsylation assay
T1 sequence (Q9H2K2 whole entry): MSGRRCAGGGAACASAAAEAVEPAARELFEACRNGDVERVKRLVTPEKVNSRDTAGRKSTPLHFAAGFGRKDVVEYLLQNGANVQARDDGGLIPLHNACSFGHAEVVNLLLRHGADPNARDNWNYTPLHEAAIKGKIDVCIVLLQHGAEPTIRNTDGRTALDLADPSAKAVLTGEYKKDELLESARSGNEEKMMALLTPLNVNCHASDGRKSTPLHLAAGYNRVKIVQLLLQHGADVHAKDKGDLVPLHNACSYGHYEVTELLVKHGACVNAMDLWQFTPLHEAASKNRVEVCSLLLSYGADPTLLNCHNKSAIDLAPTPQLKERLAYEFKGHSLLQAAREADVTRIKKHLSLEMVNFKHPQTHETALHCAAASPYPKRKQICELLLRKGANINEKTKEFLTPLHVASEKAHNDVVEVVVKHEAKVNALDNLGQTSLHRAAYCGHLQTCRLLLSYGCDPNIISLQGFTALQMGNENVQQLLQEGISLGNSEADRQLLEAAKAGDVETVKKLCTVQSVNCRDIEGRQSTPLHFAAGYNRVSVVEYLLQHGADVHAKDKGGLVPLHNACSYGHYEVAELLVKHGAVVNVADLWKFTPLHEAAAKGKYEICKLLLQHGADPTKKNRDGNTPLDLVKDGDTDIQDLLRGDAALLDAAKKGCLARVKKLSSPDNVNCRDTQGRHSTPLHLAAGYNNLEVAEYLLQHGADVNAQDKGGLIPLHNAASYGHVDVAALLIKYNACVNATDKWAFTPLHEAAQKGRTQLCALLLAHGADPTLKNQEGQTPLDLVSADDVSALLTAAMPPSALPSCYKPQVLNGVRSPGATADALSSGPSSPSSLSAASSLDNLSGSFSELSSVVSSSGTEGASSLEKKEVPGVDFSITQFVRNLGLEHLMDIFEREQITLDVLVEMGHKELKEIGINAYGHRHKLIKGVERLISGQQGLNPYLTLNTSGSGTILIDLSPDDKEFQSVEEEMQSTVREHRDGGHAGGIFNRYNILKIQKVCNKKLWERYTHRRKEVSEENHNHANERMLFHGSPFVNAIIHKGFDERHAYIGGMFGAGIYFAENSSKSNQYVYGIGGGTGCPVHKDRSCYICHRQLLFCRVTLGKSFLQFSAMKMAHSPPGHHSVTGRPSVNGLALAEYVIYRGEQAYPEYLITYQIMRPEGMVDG

[2] = target: T2, Poly [ADP-ribose] polymerase tankyrase-1 (Homo sapiens, UniProt O95271)
T2 sequence (O95271 whole entry): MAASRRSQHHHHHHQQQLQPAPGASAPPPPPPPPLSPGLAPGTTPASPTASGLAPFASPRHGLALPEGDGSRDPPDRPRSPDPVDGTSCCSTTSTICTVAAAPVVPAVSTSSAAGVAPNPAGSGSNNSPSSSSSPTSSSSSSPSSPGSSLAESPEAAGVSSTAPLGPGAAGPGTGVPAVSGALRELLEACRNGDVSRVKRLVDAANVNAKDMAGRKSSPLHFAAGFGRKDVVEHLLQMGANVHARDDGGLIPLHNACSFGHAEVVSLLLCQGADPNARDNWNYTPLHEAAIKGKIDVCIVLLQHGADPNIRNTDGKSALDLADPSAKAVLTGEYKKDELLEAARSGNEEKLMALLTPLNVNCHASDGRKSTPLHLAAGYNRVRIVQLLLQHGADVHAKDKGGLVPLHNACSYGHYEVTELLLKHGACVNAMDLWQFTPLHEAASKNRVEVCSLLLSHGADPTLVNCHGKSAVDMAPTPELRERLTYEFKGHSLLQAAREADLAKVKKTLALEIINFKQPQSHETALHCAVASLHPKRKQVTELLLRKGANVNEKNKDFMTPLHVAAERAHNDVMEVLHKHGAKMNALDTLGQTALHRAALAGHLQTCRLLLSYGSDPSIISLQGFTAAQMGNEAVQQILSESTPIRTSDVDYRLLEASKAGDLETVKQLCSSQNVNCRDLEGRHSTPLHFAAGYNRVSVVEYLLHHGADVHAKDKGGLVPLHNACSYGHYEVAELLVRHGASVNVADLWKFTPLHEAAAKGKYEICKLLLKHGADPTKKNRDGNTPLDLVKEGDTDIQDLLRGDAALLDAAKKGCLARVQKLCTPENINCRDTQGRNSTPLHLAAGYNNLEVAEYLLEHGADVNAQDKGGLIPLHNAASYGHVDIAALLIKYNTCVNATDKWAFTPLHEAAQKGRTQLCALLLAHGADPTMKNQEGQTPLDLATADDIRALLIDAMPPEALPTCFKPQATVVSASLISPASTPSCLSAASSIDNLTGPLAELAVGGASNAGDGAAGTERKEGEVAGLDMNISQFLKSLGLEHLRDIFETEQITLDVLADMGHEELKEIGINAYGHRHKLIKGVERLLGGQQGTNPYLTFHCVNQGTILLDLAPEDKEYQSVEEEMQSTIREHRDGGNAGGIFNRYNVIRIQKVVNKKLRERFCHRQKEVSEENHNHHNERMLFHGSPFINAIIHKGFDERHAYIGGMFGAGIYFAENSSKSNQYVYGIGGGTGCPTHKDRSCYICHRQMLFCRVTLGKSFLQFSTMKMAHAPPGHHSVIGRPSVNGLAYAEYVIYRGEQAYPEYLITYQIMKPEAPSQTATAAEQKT

Tankyrase 1/2 = target: T3, Tankyrase 1/2 (Homo sapiens, UniProt Q9H2K2+O95271); settings: hek293
T3 sequence (Q9H2K2 whole entry): T1 sequence (Q9H2K2 whole entry)
T3 sequence (O95271 whole entry): T2 sequence (O95271 whole entry)

[3] = target: Poly [ADP-ribose] polymerase 2 (Homo sapiens, UniProt Q9UGN5); test: Inhibition of PARP2 (unknown origin)
Sequence of Poly [ADP-ribose] polymerase 2 (Q9UGN5 whole entry): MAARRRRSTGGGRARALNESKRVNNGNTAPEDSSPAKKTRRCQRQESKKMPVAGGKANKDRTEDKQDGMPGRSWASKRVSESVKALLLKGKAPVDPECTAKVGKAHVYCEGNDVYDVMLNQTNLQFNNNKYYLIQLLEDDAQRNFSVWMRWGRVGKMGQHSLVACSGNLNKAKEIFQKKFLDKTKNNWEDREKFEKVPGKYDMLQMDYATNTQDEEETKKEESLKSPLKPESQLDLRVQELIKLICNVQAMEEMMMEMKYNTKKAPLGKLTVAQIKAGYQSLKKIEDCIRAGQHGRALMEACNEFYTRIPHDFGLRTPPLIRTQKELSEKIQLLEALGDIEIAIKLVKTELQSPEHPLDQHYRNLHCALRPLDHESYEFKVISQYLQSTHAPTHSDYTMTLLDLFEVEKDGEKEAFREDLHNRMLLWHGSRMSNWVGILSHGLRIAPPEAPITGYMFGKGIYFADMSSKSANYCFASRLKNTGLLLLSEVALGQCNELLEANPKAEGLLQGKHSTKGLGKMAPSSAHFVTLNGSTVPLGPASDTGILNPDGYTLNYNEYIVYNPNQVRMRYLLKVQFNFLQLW

| Structure (SMILES) | IC50 [1] [µM] | IC50 [2] [µM] | IC50 (Tankyrase 1/2) [µM] | IC50 [3] [µM] |
| --- | --- | --- | --- | --- |
| Cc1ccnc2c(NC(=O)c3ccc(N4C(=O)[C@@H]5[C@H](C4=O)[C@@H]4C=C[C@H]5C4)cc3)cccc12 | 0.036 | 0.192 | 163 | – |
| COc1ccccc1NC(=O)c1ccc(NC(=O)CCc2nc3ccccc3c(=O)[nH]2)cc1 | – | 0.008 | – | 0.931 |

Source: ChEMBL document CHEMBL2311538, “Discovery of a class of novel tankyrase inhibitors that bind to both the nicotinamide pocket and the induced pocket” (J Med Chem, 2013)
